According to BindingDB's records for patent US20250313563 (The Broad Institute, 2025):
“And” between values parts separate entries of the source, which are not always exact repeats. Equal values may be shown once.

Legend:
[1] = target: Glycogen synthase kinase-3 beta (Homo sapiens, UniProt P49841); test: TR-FRET Assay
Outline: (§1)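 Kinase activity, measured after a 30-minute compound preincubation, was stopped with EDTA and quantified by TR-FRET using a Tb-labelled pSer641 antibody paired with streptavidin-d2.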

[2] = target: Glycogen synthase kinase-3 alpha (Homo sapiens, UniProt P49840); test: TR-FRET Assay
Outline: as §1

Sequence of Glycogen synthase kinase-3 alpha (P49840 whole entry): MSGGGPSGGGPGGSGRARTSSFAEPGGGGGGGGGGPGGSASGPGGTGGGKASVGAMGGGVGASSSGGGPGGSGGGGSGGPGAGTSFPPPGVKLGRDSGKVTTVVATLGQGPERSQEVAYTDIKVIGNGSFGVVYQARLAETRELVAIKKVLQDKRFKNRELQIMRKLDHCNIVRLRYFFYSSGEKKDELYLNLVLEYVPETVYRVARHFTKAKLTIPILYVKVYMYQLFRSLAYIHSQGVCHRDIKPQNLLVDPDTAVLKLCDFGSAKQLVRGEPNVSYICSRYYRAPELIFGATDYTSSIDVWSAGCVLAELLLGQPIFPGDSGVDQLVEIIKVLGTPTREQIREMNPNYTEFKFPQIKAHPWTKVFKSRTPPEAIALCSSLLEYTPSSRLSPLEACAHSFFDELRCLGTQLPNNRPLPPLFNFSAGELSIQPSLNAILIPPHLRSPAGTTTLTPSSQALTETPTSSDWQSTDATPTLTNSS
Sequence of Glycogen synthase kinase-3 beta (P49841 whole entry): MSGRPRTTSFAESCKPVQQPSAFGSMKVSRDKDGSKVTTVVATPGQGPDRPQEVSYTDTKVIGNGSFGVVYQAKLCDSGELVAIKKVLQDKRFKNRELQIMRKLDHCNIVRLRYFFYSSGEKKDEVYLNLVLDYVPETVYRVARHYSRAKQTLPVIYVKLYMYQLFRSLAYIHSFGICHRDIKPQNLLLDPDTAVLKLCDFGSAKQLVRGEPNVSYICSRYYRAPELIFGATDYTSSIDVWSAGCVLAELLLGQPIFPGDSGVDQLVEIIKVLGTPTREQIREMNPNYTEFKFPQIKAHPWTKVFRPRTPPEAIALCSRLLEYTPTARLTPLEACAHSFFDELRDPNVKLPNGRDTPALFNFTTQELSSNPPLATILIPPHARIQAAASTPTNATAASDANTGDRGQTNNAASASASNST

| Compound | IC50 [1] | IC50 [2] |
| --- | --- | --- |
| CC[C@]1(c2cccc(Br)c2)C2=CN=NC2NC2=C1C(=O)C[C@@H](C)C2 (stereo partly specified) [US20250313563, Compound 810484] | > 5000 nM | > 5000 nM |
| CCC1(c2cccc(C(F)(F)F)c2)C2=C(N=NC2)NC2=C1C(=O)NCCC2 (stereo unspecified) [US20250313563, Compound 913355] | > 5000 nM | > 5000 nM |
| CC1(C)CC(=O)C2=C(C1)NC1=C(CN=N1)C21CN(C(=O)OCc2ccccc2)C1 [US20250313563, Compound 889568] | 1000 to 5000 nM | 100 to 1000 nM |
| CC1CCCC12C1=C(N=NC1)NC1=C2C(=O)CC(C)(C)C1 (stereo unspecified) [US20250313563, Compound 826765] | 1000 to 5000 nM | 100 to 1000 nM |
| CC[C@@]1(c2cc(-c3ccncc3)ccc2F)C2=CN=NC2NC2=C1C(=O)CC(C)(C)C2 (stereo partly specified) [US20250313563, Compound 893324] | > 5000 nM | 1000 to 5000 nM |
| CC[C@@]1(c2cccc(-c3ccnnc3)c2)C2=CN=NC2NC2=C1C(=O)CC(C)(C)C2 (stereo partly specified) [US20250313563, Compound 929454] | < 100 nM and 1000 to 5000 nM | < 100 nM and 100 to 1000 nM |
| CC[C@]1(c2cccc(C(F)(F)F)c2)C2=C(N=NC2)NC2=C1C(=O)NC2 [US20250313563, Compound 917157] | > 5000 nM | > 5000 nM |
| CCC1(c2cccc(N3CCCC3)c2)C2=CN=NC2NC2=C1C(=O)NC(C)(C)C2 (stereo unspecified) [US20250313563, Compound 945723] | 1000 to 5000 nM | 100 to 1000 nM |
| CCC1(c2cccc(-c3ccncc3C)c2)C2=C(CC(C)(C)CC2=O)NC2N=NC(C(F)(F)F)=C21 (stereo unspecified) [US20250313563, Compound 945527] | < 100 nM and 100 to 1000 nM | < 100 nM |
| CC[C@@]1(c2cccc(C3CC3)c2)C2=CN=NC2NC2=C1C(=O)NC(C)(C)C2 (stereo partly specified) [US20250313563, Compound 950817] | > 5000 nM | > 5000 nM |
| Cn1ccc(S(=O)(=O)N2CC[C@@]3(C2)C2=C(N=NC2)NC2=C3C(=O)CC(C)(C)C2)n1 [US20250313563, Compound 943484] | < 100 nM and 1000 to 5000 nM | < 100 nM and 100 to 1000 nM |
| CC[C@@]1(c2cccc(-c3ccncc3F)c2)C2=C(CC(C)(C)NC2=O)NC2N=NC(Cl)=C21 (stereo partly specified) [US20250313563, Compound 949757] | < 100 nM and 1000 to 5000 nM | < 100 nM and 100 to 1000 nM |
| CC1(C)CC(=O)C2=C(C1)NC1=C(CN=N1)C21CCN(S(=O)(=O)c2cccc(Cl)c2)CC1 [US20250313563, Compound 947243] | < 100 nM and 1000 to 5000 nM | < 100 nM and 100 to 1000 nM |
| Cn1cc(S(=O)(=O)N2CC[C@]3(C2)C2=C(N=NC2)NC2=C3C(=O)CC(C)(C)C2)cn1 [US20250313563, Compound 951726] | < 100 nM and 1000 to 5000 nM | < 100 nM and 1000 to 5000 nM |
| CCC1(c2cccc(C(F)(F)F)c2)C2=CN=NC2NC2=C1C(=O)N(c1nn(C)cc1C)CC2 (stereo unspecified) [US20250313563, Compound 950486] | 1000 to 5000 nM | 100 to 1000 nM |
| CC[C@@]1(c2cccc(C(F)(F)F)c2)C2=CN=NC2NC2=C1C(=O)N(c1ccccc1C)CC2 (stereo partly specified) [US20250313563, Compound 949129] | > 5000 nM | > 5000 nM |
| C[C@@H]1COCC[C@@]12C1=CN=NC1NC1=C2C(=O)CC(C)(C)C1 (stereo partly specified) [US20250313563, Compound 924310] | > 5000 nM | > 5000 nM |
| CCC1(c2cccc(N3CCc4cnccc4C3)c2)C2=CN=NC2NC2=C1C(=O)CC(C)(C)C2 (stereo unspecified) [US20250313563, Compound 929449] | 1000 to 5000 nM | 1000 to 5000 nM |
| CC[C@@]1(c2cccc(C3CC3)c2)C2=CN=NC2NC2=C1C(=O)NC(C)(C)C2 (stereo partly specified) [US20250313563, Compound 950828] | > 5000 nM | < 100 nM and 1000 to 5000 nM |
| C[C@H]1CC[C@]2(C1)C1=C(N=NC1)NC1=C2C(=O)CC(C)(C)C1 [US20250313563, Compound 897751] | 100 to 1000 nM | < 100 nM |
| CC[C@@]1(c2cccc(S(=O)(=O)C3CCCCC3)c2)C2=CN=NC2NC2=C1C(=O)CC(C)(C)C2 (stereo partly specified) [US20250313563, Compound 943541] | 1000 to 5000 nM | 100 to 1000 nM |
| CCC1(c2cccc(C(F)(F)F)c2)C2=CN=NC2NC2=C1C(=O)N(C(C)C)CC2 (stereo unspecified) [US20250313563, Compound 825755] | 100 to 1000 nM | < 100 nM |
| CCC1(c2cccc(N(C)C(=O)C3CCOCC3)c2)C2=CN=NC2NC2=C1C(=O)CC(C)(C)C2 (stereo unspecified) [US20250313563, Compound 912070] | 100 to 1000 nM | < 100 nM |
| CC[C@@]1(c2cccc(-c3ccnc(C)c3)c2)C2=C(N=NC2)NC2=C1C(=O)[C@H]1CC[C@@H]2C1 [US20250313563, Compound 943916] | 100 to 1000 nM | < 100 nM |
| CCC1(c2cccc(N(C)c3cccc(C)n3)c2)C2=CN=NC2NC2=C1C(=O)CC(C)(C)C2 (stereo unspecified) [US20250313563, Compound 913255] | 100 to 1000 nM | < 100 nM |
| CC[C@]1(c2cccc(C(F)(F)F)c2)C2=CN=NC2NC2=C1C(=O)N[C@H](c1ccccc1)C2 (stereo partly specified) [US20250313563, Compound 945361] | 100 to 1000 nM | < 100 nM |

Continued, values first:

| IC50 [1] | IC50 [2] | Compound |
| --- | --- | --- |
| 100 to 1000 nM | 100 to 1000 nM | CCC1(c2cccc(N3CCOCC3)c2)C2=C(CC(C)(C)NC2=O)NC2N=NC(C)=C21 (stereo unspecified) [US20250313563, Compound 947564] |
| < 100 nM | < 100 nM | COc1ccccc1S(=O)(=O)N1CC2(C1)C1=C(N=NC1)NC1=C2C(=O)CC(C)(C)C1 [US20250313563, Compound 913261] |
| 100 to 1000 nM | < 100 nM | O=C1CC2(CCC2)CC2=C1C1(CCOCC1)C1=C(N=NC1)N2 [US20250313563, Compound 909208] |
| 100 to 1000 nM | < 100 nM | CC[C@]1(c2cccc(-c3ccnc(C)c3)c2)C2=C(N=NC2)NC2=C1C(=O)[C@H]1CC[C@@H]2C1 [US20250313563, Compound 943917] |
| 100 to 1000 nM | < 100 nM | CCC1(c2cccc(-c3cc(OC)ncn3)c2)C2=CN=NC2NC2=C1C(=O)CC(C)(C)C2 (stereo unspecified) [US20250313563, Compound 948093] |
| 100 to 1000 nM | 100 to 1000 nM | CCC1(c2cccc(N3CCC[C@@H]3C)c2)C2=CN=NC2NC2=C1C(=O)CC(C)(C)C2 (stereo partly specified) [US20250313563, Compound 885188] |
| 100 to 1000 nM | 100 to 1000 nM | CC1(C)CC(=O)C2=C(C1)NC1=C(CN=N1)[C@]21CC[C@@H](C(F)(F)F)C1 [US20250313563, Compound 952437] |
| < 100 nM | < 100 nM | CCC1(c2cccc(N(C)c3ccnc(C(F)(F)F)c3)c2)C2=CN=NC2NC2=C1C(=O)CC(C)(C)C2 (stereo unspecified) [US20250313563, Compound 913254] |
| 100 to 1000 nM | < 100 nM | CCC1(c2cccc(S(=O)(=O)CC3CC3)c2)C2=CN=NC2NC2=C1C(=O)NC(C)(C)C2 (stereo unspecified) [US20250313563, Compound 948177] |
| < 100 nM | 100 to 1000 nM | CC(C)(C)CC1=C2C(N=N1)NC1=C(C(=O)CC(C)(C)C1)[C@]21CCCc2ccccc21 (stereo partly specified) [US20250313563, Compound 811595] |
| < 100 nM | < 100 nM | CCC1(c2cccc(-c3ccncc3CO)c2)C2=CN=NC2NC2=C1C(=O)CC(C)(C)C2 (stereo unspecified) [US20250313563, Compound 943539] |
| 100 to 1000 nM | 1000 to 5000 nM | CC1(C)CC(=O)C2=C(C1)NC1N=NC(C3CC(F)(F)C3)=C1[C@@]21COc2ccccc21 (stereo partly specified) [US20250313563, Compound 127430] |
| < 100 nM | < 100 nM | CCC1(c2cccc(-c3ccnn3C(C)C)c2)C2=CN=NC2NC2=C1C(=O)CC(C)(C)C2 (stereo unspecified) [US20250313563, Compound 929399] |
| 100 to 1000 nM | 100 to 1000 nM | CC1(C)CC(=O)C2=C(C1)NC1=C(CN=N1)C21CCN(S(=O)(=O)c2cc(F)ccn2)CC1 [US20250313563, Compound 947262] |
| < 100 nM | < 100 nM | CC[C@@]1(c2cccc(N3CCOc4ccccc43)c2)C2=CN=NC2NC2=C1C(=O)CC(C)(C)C2 (stereo partly specified) [US20250313563, Compound 932655] |
| < 100 nM | < 100 nM | CC1(C)CC(=O)C2=C(C1)NC1=C(CN=N1)C21CCN(S(=O)(=O)c2ccc(F)c(F)c2)CC1 [US20250313563, Compound 948119] |
| < 100 nM | < 100 nM | CCC1(c2cccc(C(F)(F)C(F)(F)F)c2)C2=CN=NC2NC2=C1C(=O)CC(C)(C)C2 (stereo unspecified) [US20250313563, Compound 948615] |
| 100 to 1000 nM | < 100 nM | CCC1(c2cccc(N3CCCCC3)c2)C2=C(CC(C)(C)NC2=O)NC2N=NC(C)=C21 (stereo unspecified) [US20250313563, Compound 947674] |
| 100 to 1000 nM | 100 to 1000 nM | CC[C@]1(c2cccc(C3CCOCC3)c2)C2=CN=NC2NC2=C1C(=O)CC(C)(C)C2 (stereo partly specified) [US20250313563, Compound 819638] |
| 100 to 1000 nM | < 100 nM | CC1(C)CC(=O)C2=C(C1)NC1N=NC=C1[C@]21C[C@H](c2ccncc2)C1 (stereo partly specified) [US20250313563, Compound 889664] |
| 100 to 1000 nM | 100 to 1000 nM | C[C@@H]1C[C@]2(CCO1)C1=C(N=NC1)NC1=C2C(=O)CC(C)(C)C1 [US20250313563, Compound 924308] |
| < 100 nM | < 100 nM | CC1(C)CC(=O)C2=C(C1)NC1=C(CN=N1)C21COC2(CN(C(=O)C(C)(C)C)C2)C1 (stereo unspecified) [US20250313563, Compound 947303] |
| < 100 nM | < 100 nM | CC1(C)CC(=O)C2=C(C1)NC1=C(CN=N1)C21CCN(S(=O)(=O)c2ccc(Cl)c(Cl)c2)CC1 [US20250313563, Compound 945660] |
| < 100 nM | < 100 nM | CC1(C)CC(=O)C2=C(C1)NC1=C(CN=N1)[C@@]21COC2(CN(C(=O)C3CCCC3)C2)C1 [US20250313563, Compound 943957] |
| < 100 nM | < 100 nM | CCn1nccc1S(=O)(=O)N1CCC2(CC1)C1=C(N=NC1)NC1=C2C(=O)CC(C)(C)C1 [US20250313563, Compound 945664] |
| < 100 nM | < 100 nM | Cc1ncc(S(=O)(=O)N2CCC3(CC2)C2=C(N=NC2)NC2=C3C(=O)CC(C)(C)C2)s1 [US20250313563, Compound 947899] |
| < 100 nM | < 100 nM | CC[C@@]1(c2cccc(-c3ccnn3C)c2)C2=CN=NC2NC2=C1C(=O)NC1(CCCC1)C2 (stereo partly specified) [US20250313563, Compound 948018] |
